# Data reported in patent US11052101B2, “Methods for treating cancer using purine analogs by depleting intracellular ATP” (National Guard Health Affairs, priority 2019, dated 2021).
# Entries after “also recorded” stand apart in the source; their conditions may differ.
# Columns and labels:
# primary CLL cells [1] = experiment: Western blotting / immunoblotting of apoptosis markers (cleaved PARP, caspases); type: cell-based, human; conditions: for cleaved PARP (apoptosis marker), western blot: 3 uM isoproterenol, 24 hr, IBMX positive control; for apoptosis by immunoblotting with apoptotic markers: 30 uM isoproterenol 12 hrs pre-treatment, 10 uM fludarabine 48 hr
# Method: Cell death markers for apoptosis (cleaved PARP, cleaved caspase 3 and caspase 9) and autophagy (accumulation of LC3 II) were assessed by western blotting.
# […] Cells were then harvested and examined by immunoblotting with apoptotic markers Cleaved PARP and caspace 9.
# Control primary CLL cells ([…]), 10 uM fludarabine (Flud), a combination of both drugs at these concentrations (Flud/Iso), 0.5 uM doxorubicin (Dodo), a combination of 0.5 uM doxorubicin and 30 uM isoproterenol (Dodo/Iso), 0.5 uM mitoxantrone, and a combination of 0.5 uM mitoxantrone and 30 uM isoproterenol and incubated. Cells were than harvested and examined by immunoblotting with the indicated apoptotic markers.
# CLL primary cells = experiment: MTT (ATP independent) cell viability assay; type: cell-based, human; conditions: gradient of concentrations
# Text: The two assays gave completely different dose-response curves.
# p-CREB = experiment: Human phosphokinase array; type: cell-based; conditions: 20 μM for 24 hours, compared to untreated
# Method: Samples of primary CLL cells were treated in vitro with 20 μM isoproterenol for 24 hours in a human phosphokinase array. In the array each kinase was spotted in duplicate with hybridization signals at the corners serving as controls. Relative levels of protein phosphorylation (normalized intensity for each antibody) were calculated for each untreated and treated sample.
# primary CLL cells [2] = type: cell-based
# Method: (§1) To assess viability of the treated cells, cells were stained by propidium iodide and analyzed by flow cytometry.
# (§2) The PI/flow cytometry assay assesses cell viability using propidium iodide (PI) which is a membrane impermanent dye that is generally excluded from viable cells. It binds to double stranded DNA by intercalating between base pairs.
# Primary CLL cells were isolated from three CLL patients and were exposed 10 uM fludarabine (a purine analog) alone or in combination with 30 uM isoproterenol to assess the effects of the drug(s) on cytotoxicity and growth. Induced cell death was assessed by PI staining and flow cytometry.
# After 24 hours treatment, the treated cells were stained with the cell-death marker, propidium iodide and analyzed with flow-cytometry to determine % induced cell death.
# primary CLL cells [3] = experiment: Isoproterenol-induced intracellular cAMP accumulation; type: cell-based, human; conditions: IBMX pre-treatment one hour, then 10 uM for 24 hr; CLL cells compared to normal cells
# Method: Isoproterenol-induced intracellular cAMP accumulation in normal PBMCs and primary CLL cells was assessed. Cell samples were pre-treated for one hour with phosphodiesterase inhibitor (IBMX) and then with 10 uM isoproterenol for 24 hr.
# primary CLL cells [4] = experiment: CellTiter-Glo ATP-based luminescent assay, intracellular ATP depletion; type: cell-based, human; conditions: for intracellular ATP depletion (luminescence), dose-response: gradient of concentrations, 1 to 20 μM
# Method: Primary CLL cells were treated with 3 uM isoproterenol (IC50 determined with Cell-titer Glo® assay) for 24 hr. Cell death markers for apoptosis (cleaved PARP, cleaved caspase 3 and caspase 9) and autophagy (accumulation of LC3 II) were assessed by western blotting. The […] phosphodiesterase inhibitor, IBMX, was used as a positive control because it induces apoptosis in CLL B cells.
# CellTiter-Glo® Luminescent Cell Viability Assay is a homogeneous method for determining the number of viable cells in culture based on quantitation of the ATP present, an indicator of metabolically active cells.
# ATP depletion in CLL cells was measured by the ATP-based luminescent assay CellTiter-Glo®.
# Isoproterenol-induced intercellular ATP depletion was determined by the ATP-based luminescent assay CellTiter-Glo®. The efficiency of isoproterenol in depleting intracellular ATP is represented by the dose response curves shown by FIGS. 3B, 3D and 3F respectively.
# normal PBMCs = experiment: Induced cell death by propidium iodide staining and flow cytometry; type: cell-based, human; conditions: 3 uM
# Method: as §1, §2
# Cells from CLL, AML, and from normal donors were treated with 30 μM isoproterenol, 10 μM fludarabine, or a mixture of both drugs at these concentrations as shown by FIGS. 3A, 3C and 3E respectively.
phosphorylation of p-CREB (p-CREB),Structure (SMILES),"cleaved PARP (apoptosis marker), western blot (primary CLL cells [1])",apoptosis by immunoblotting with apoptotic markers (primary CLL cells [1]),"apoptosis, cleaved PARP (relative pixel density) (primary CLL cells [1]; 30 uM isoproterenol, 10 uM fludarabine)",cell death by MTT assay (CLL primary cells),p53 expression (P53),"cell death, PI staining / flow cytometry (primary CLL cells [2]; 3 uM)","cell death, ATP-independent assay (solid line FIG. 1C) (primary CLL cells [2]; 1 to 20 μM)",intracellular cAMP accumulation (primary CLL cells [3]),intracellular ATP depletion (primary CLL cells [4]; 1 μM),depletion of intracellular ATP (primary CLL cells [4]; 30 μM for 12 hours),sensitivity to isoproterenol induced intracellular ATP depletion (primary CLL cells [4]; CLL primary cells compared with other leukemia subtypes and normal PBMCs),"IC50 (primary CLL cells [4]; Homo sapiens, CLL cell, primary CLL cells, read-out: IC50 determined with Cell-titer Glo assay)","intracellular ATP depletion (luminescence), dose-response (primary CLL cells [4])","intracellular ATP depletion (luminescence), dose-response (primary CLL cells [4]; listed as Iso)",sensitivity to isoproterenol (ATP depletion) (primary CLL cells [4]; primary CLL cells from a CLL patient at early stage),"cell death, PI staining / flow cytometry (normal PBMCs)"
–,CC(C)Cn1c(=O)n(C)c(=O)c2[nH]cnc21 [IBMX],presence of cleaved PARP,–,–,–,–,–,–,–,–,–,–,–,–,–,–,–
–,"Nc1nc(F)nc2c1ncn2[C@@H]1O[C@H](CO)[C@@H](O)[C@@H]1O [fludarabine, Fludarabine]",–,Apoptosis was observed,induced apoptosis,–,–,–,–,–,–,–,–,–,–,–,–,–
only significantly up-regulated kinase,"CC(C)NCC(O)c1ccc(O)c(O)c1 (stereo not shown) [isoproterenol, Isoproterenol]",no cleaved PARP,Apoptosis was not observed,–,doesn't induce cell death,doesn't induce any increase in p53 expression,did not induce any significant cell death,did not induce cell death,significantly higher accumulation of cAMP,weak intracellular ATP depletion,more than 80%,highest sensitivity,3000 nM,increased intracellular ATP depletion; also recorded: dose-dependent decrease in luminescence,induces intracellular ATP depletion,lesser sensitivity,did not induce any significant cell death
